In article PMC11217935, “Facile Halogenation of Antimicrobial Peptides As Demonstrated by Producing Bromotryptophan-Labeled Nisin Variants with Enhanced Antimicrobial Activity” (Journal of Natural Products, 2024):
In brackets after ≈: the same amount, converted by molar mass.

Columns and labels:
[1] = system: Lactococcus lactis MG1363; type: cell-based; conditions: for fold decrease in activity: L. lactis (MG1363), from MIC values, I1W compared with nisin, analogue-labelled variants by the numbers compared with Trp variant
Method: (§1) MIC values were determined using broth microdilution according to standard guidelines.[42] The inoculum was adjusted to approximately 5 × 10^5 CFU/mL, and the MIC was defined as the lowest concentration of antimicrobial compound with no visible growth after overnight incubation at 37 °C (or at 30 °C for L. lactis strain).

[2] = Spot-on-lawn assay to test lipid II binding; type: cell-based, Bacillus cereus; conditions: B. cereus CH-85 lawn on LB agar; lipid II (600 μM, 2 μL per Figure 6; 0.8 mol/L, 2 μL per method) spotted at edge of halo; overnight 37 °C; preliminary results
Method: A 0.1% (v/v) inoculum of B. cereus CH-85 from an overnight culture was added to 1.5% (w/v) LB agar at 45 °C, and 10 mL of the mixture was poured onto a plate. The binding of the peptide to lipid II was evaluated by spotting purified lipid II ([…], 2 μL)[38],[41] at the edge of the 0.2 mg antibiotic inhibition halo. Specifically, 5 μL of the antibiotic was loaded onto the agar plate, and after drying, the lipid II solution was spotted at the edge of the inhibition halo. The plate was then incubated overnight at 37 °C.

[3] = system: Staphylococcus aureus LMG15975 (MRSA); assay: MIC, broth microdilution; type: cell-based; conditions: one of two tested pathogens (S. aureus LMG15975 MRSA), WHO priority pathogen; compared with wild-type nisin
Method: as §1

Bacillus cereus CH-85 = assay: MIC, broth microdilution; type: cell-based; conditions: one of two tested pathogens (B. cereus CH-85); compared with wild-type nisin
Method: as §1

B. cereus CH-85 = assay: Time-kill assay; type: cell-based, Bacillus cereus; conditions: within 3 h, 5 × 10^5 cells per mL, 37 °C, triplicate
Method: The antimicrobial activity of nisin and its brominated variants was evaluated against B. cereus CH-85 using a previously described procedure.[38],[41] Briefly, an overnight culture of B. cereus was diluted 50-fold in LB medium and grown at 37 °C with aeration until reaching an OD600 of 0.5, after which the cell concentration was adjusted to 5 × 10^5 cells per mL. Bacteria were then exposed to different concentrations of nisin or brominated nisin variant in culture tubes at 37 °C and 180 rpm, with untreated bacteria serving as a negative control. At desired time points, 50 μL aliquots were taken, and 10-fold serial dilutions were plated on LB agar plates. After overnight incubation at 37 °C, colonies were counted, and colony-forming units (CFU) per milliliter were calculated. Each experiment was performed in triplicate.

[4] = system: Staphylococcus aureus LMG10147; assay: MIC, broth microdilution; type: cell-based; conditions: S. aureus (text: 'S. aureus' / 'one S. aureus'; by Table 2 LMG10147); from MIC values
Method: as §1

[5] = system: Enterococcus faecalis LMG16216 (VRE); assay: MIC, broth microdilution; type: cell-based; conditions: E. faecalis; from MIC values
Method: as §1

[6] = system: Enterococcus faecium LMG16003 (VRE); assay: MIC, broth microdilution; type: cell-based; conditions: E. faecium; from MIC values
Method: as §1

Row | Compound | MIC [1] | fold decrease in activity [1] | effect of externally added purified lipid II on antimicrobial activity (inhibition halo) [2] | fold decrease in activity [4] | further results
1 | C=C(NC(=O)[C@@H](NC(=O)[C@H](Cc1c[nH]cn1)NC(=O)[C@@H](NC(=O)[C@H](CO)NC(=O)[C@@H]1CS[C@@H](C)[C@H]2NC(=O)[C@H](C)NC(=O)[C@H](NC(=O)[C@H](CCCCN)NC(=O)[C@H](CCSC)NC(=O)[C@H](CC(N)=O)NC(=O)[C@@H]3CS[C@@H](C)[C@@H](NC(=O)[C@H](CCCCN)NC(=O)[C@@H]4CS[C@@H](C)[C@@H](NC(=O)[C@@H]5CSC[C@@H](NC(=O)/C(=C/C)NC(=O)[C@@H](N)Cc6c[nH]c7ccccc67)C(=O)N[C@@H]([C@@H](C)CC)C(=O)NC(=C)C(=O)N[C@@H](CC(C)C)C(=O)N5)C(=O)N5CCC[C@H]5C(=O)NCC(=O)N4)C(=O)NCC(=O)N[C@@H](C)C(=O)N[C@@H](CC(C)C)C(=O)N[C@@H](CCSC)C(=O)NCC(=O)N3)[C@H](C)SC[C@H](NC2=O)C(=O)N[C@@H](Cc2c[nH]cn2)C(=O)N1)[C@@H](C)CC)C(C)C)C(=O)N[C@@H](CCCCN)C(=O)O [nisin I1W Trp] | 0.04 µg/mL (≈ 0.0117 µM) | 2 fold |  |  | 
2 | daptomycin [reference compound] |  |  | maintained its antimicrobial activity |  | 
3 | C=C(NC(=O)[C@@H](NC(=O)[C@H](Cc1c[nH]cn1)NC(=O)[C@@H](NC(=O)[C@H](CO)NC(=O)[C@@H]1CS[C@@H](C)[C@H]2NC(=O)[C@H](C)NC(=O)[C@H](NC(=O)[C@H](CCCCN)NC(=O)[C@H](CCSC)NC(=O)[C@H](CC(N)=O)NC(=O)[C@@H]3CS[C@@H](C)[C@@H](NC(=O)[C@H](CCCCN)NC(=O)[C@@H]4CS[C@@H](C)[C@@H](NC(=O)[C@@H]5CSC[C@@H](NC(=O)/C(=C/C)NC(=O)[C@@H](N)Cc6c[nH]c7ccc(Br)cc67)C(=O)N[C@@H]([C@@H](C)CC)C(=O)NC(=C)C(=O)N[C@@H](CC(C)C)C(=O)N5)C(=O)N5CCC[C@H]5C(=O)NCC(=O)N4)C(=O)NCC(=O)N[C@@H](C)C(=O)N[C@@H](CC(C)C)C(=O)N[C@@H](CCSC)C(=O)NCC(=O)N3)[C@H](C)SC[C@H](NC2=O)C(=O)N[C@@H](Cc2c[nH]cn2)C(=O)N1)[C@@H](C)CC)C(C)C)C(=O)N[C@@H](CCCCN)C(=O)O [nisin I1W 5BrTrp] | 0.04 µg/mL (≈ 0.0114 µM) |  | decreased the antimicrobial activity |  | fold improvement in antimicrobial activity [3]: 2 fold; fold improvement in antimicrobial activity (Bacillus cereus CH-85): 2 fold; killing activity (viability of exponential culture) (B. cereus CH-85; B. cereus CH-85, 2.5 μg/mL (lowest concentration tested)): only slight killing; killing activity (viability of exponential culture) (B. cereus CH-85; B. cereus CH-85, 15 μg/mL): slower bactericidal activity than did nisin
4 | C=C(NC(=O)[C@@H](NC(=O)[C@H](Cc1c[nH]cn1)NC(=O)[C@@H](NC(=O)[C@H](CO)NC(=O)[C@@H]1CS[C@@H](C)[C@H]2NC(=O)[C@H](C)NC(=O)[C@H](NC(=O)[C@H](CCCCN)NC(=O)[C@H](CCSC)NC(=O)[C@H](CC(N)=O)NC(=O)[C@@H]3CS[C@@H](C)[C@@H](NC(=O)[C@H](CCCCN)NC(=O)[C@@H]4CS[C@@H](C)[C@@H](NC(=O)[C@@H]5CSC[C@@H](NC(=O)/C(=C/C)NC(=O)[C@@H](N)Cc6c[nH]c7cc(Br)ccc67)C(=O)N[C@@H]([C@@H](C)CC)C(=O)NC(=C)C(=O)N[C@@H](CC(C)C)C(=O)N5)C(=O)N5CCC[C@H]5C(=O)NCC(=O)N4)C(=O)NCC(=O)N[C@@H](C)C(=O)N[C@@H](CC(C)C)C(=O)N[C@@H](CCSC)C(=O)NCC(=O)N3)[C@H](C)SC[C@H](NC2=O)C(=O)N[C@@H](Cc2c[nH]cn2)C(=O)N1)[C@@H](C)CC)C(C)C)C(=O)N[C@@H](CCCCN)C(=O)O [nisin I1W 6BrTrp] | 0.08 µg/mL (≈ 0.0228 µM) | 2 fold |  | 2 fold | fold decrease in activity [5]: 2 fold
5 | C=C(NC(=O)[C@@H](NC(=O)[C@H](Cc1c[nH]cn1)NC(=O)[C@@H](NC(=O)[C@H](CO)NC(=O)[C@@H]1CS[C@@H](C)[C@H]2NC(=O)[C@H](C)NC(=O)[C@H](NC(=O)[C@H](CCCCN)NC(=O)[C@H](CCSC)NC(=O)[C@H](CC(N)=O)NC(=O)[C@@H]3CS[C@@H](C)[C@@H](NC(=O)[C@H](CCCCN)NC(=O)[C@@H]4CS[C@@H](C)[C@@H](NC(=O)[C@@H]5CSC[C@@H](NC(=O)/C(=C/C)NC(=O)[C@@H](N)Cc6c[nH]c7ccc(O)cc67)C(=O)N[C@@H]([C@@H](C)CC)C(=O)NC(=C)C(=O)N[C@@H](CC(C)C)C(=O)N5)C(=O)N5CCC[C@H]5C(=O)NCC(=O)N4)C(=O)NCC(=O)N[C@@H](C)C(=O)N[C@@H](CC(C)C)C(=O)N[C@@H](CCSC)C(=O)NCC(=O)N3)[C@H](C)SC[C@H](NC2=O)C(=O)N[C@@H](Cc2c[nH]cn2)C(=O)N1)[C@@H](C)CC)C(C)C)C(=O)N[C@@H](CCCCN)C(=O)O [nisin I1W 5OHTrp] | 0.08 µg/mL (≈ 0.0232 µM) | 2 fold |  | 2 fold | fold decrease in activity [6]: 2 fold
